Data as given in patent US11566022B2, “3-(5-methoxy-1-oxoisoindolin-2-yl)piperidine-2,6-dione derivatives and uses thereof” (NOVARTIS AG, priority 2019, dated 2023).
Read-outs that look alike come from different tables or passages of the source.

Molecular target: HiBit-WIZ fusion protein (Homo sapiens, UniProt O95785+Q96SW2)
Test: Quantification of WIZ protein levels in HiBit tag fusion protein assay (WIZ HiBit assay in 293T cells)
Assay type: cell-based
Parameters: Dmax: dose or concentration left out as unconfirmed
Conditions: for DC50: WIZ HiBit assay in 293T cells, 10-point, 5-fold dose response, highest concentration 25 μM, about 18 hours, read-out: WIZ AC50; for remaining activity at up to 25 µM / WIZ Amax: DMSO-normalized, curve-fitted percentage of WIZ-HiBit remaining at 25 uM; for remaining activity at up to 25 µM: read-out: WIZ Amax; for % degradation of WIZ (100-Amax): at 25 uM
[1] = HEK-293T, 100 minus Amax, 293T cells, read-out: % degradation of WIZ (100-Amax)

HiBit-WIZ fusion protein, sequence (O95785 whole entry, the tested form may be a part): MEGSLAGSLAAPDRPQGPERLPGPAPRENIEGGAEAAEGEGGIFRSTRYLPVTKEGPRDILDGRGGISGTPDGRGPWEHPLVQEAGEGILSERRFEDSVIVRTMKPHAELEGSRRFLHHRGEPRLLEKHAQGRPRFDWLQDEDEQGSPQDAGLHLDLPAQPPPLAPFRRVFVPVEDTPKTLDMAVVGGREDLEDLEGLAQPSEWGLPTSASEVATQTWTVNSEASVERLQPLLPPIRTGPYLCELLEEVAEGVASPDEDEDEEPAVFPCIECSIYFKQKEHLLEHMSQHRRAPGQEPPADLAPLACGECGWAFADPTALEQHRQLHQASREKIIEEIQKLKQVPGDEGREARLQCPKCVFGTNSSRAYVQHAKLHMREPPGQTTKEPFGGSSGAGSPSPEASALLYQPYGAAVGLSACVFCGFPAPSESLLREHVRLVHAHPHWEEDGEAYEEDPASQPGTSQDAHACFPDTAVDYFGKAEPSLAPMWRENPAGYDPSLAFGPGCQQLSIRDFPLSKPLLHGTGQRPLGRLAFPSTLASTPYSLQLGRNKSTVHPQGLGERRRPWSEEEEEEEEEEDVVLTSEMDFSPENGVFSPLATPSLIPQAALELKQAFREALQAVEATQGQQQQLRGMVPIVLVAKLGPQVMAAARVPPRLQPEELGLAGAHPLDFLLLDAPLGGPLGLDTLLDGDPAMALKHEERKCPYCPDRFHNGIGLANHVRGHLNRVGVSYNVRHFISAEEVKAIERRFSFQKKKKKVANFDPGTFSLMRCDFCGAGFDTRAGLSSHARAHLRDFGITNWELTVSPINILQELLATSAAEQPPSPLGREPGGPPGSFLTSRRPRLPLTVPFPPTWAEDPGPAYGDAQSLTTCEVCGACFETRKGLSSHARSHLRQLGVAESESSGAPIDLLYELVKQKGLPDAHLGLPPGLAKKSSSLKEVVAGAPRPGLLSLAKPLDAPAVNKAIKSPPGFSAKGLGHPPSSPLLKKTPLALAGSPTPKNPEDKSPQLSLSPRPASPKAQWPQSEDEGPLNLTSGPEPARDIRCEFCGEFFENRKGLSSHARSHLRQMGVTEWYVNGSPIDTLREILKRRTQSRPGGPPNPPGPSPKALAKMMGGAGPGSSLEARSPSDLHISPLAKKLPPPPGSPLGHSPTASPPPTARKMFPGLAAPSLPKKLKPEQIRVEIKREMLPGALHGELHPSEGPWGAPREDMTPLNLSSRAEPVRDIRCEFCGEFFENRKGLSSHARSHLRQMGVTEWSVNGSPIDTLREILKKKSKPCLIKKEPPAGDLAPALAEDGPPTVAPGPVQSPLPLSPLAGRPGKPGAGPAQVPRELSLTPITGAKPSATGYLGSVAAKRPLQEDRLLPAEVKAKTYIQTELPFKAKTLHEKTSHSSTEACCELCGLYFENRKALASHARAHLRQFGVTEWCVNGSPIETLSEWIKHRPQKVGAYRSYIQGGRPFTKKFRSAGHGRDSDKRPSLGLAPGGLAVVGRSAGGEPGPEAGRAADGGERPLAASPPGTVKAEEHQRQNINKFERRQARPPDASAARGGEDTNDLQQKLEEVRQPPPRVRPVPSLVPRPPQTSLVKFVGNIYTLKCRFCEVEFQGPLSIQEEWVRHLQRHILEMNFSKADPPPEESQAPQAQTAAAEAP
HiBit-WIZ fusion protein, sequence (Q96SW2 whole entry, the tested form may be a part): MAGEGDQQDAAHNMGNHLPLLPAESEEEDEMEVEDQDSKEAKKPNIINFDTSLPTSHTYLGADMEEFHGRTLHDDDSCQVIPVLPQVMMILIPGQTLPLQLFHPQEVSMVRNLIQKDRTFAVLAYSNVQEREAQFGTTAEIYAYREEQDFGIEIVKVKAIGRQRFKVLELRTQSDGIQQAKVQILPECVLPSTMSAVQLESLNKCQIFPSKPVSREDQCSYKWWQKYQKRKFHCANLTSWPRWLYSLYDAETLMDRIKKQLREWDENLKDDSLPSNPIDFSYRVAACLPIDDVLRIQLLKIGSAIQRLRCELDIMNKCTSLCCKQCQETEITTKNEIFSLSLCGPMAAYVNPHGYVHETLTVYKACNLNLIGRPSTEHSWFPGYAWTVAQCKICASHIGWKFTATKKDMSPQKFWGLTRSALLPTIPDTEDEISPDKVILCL
HiBit-WIZ fusion protein, sequence (Q16531 whole entry partner, the tested form may be a part): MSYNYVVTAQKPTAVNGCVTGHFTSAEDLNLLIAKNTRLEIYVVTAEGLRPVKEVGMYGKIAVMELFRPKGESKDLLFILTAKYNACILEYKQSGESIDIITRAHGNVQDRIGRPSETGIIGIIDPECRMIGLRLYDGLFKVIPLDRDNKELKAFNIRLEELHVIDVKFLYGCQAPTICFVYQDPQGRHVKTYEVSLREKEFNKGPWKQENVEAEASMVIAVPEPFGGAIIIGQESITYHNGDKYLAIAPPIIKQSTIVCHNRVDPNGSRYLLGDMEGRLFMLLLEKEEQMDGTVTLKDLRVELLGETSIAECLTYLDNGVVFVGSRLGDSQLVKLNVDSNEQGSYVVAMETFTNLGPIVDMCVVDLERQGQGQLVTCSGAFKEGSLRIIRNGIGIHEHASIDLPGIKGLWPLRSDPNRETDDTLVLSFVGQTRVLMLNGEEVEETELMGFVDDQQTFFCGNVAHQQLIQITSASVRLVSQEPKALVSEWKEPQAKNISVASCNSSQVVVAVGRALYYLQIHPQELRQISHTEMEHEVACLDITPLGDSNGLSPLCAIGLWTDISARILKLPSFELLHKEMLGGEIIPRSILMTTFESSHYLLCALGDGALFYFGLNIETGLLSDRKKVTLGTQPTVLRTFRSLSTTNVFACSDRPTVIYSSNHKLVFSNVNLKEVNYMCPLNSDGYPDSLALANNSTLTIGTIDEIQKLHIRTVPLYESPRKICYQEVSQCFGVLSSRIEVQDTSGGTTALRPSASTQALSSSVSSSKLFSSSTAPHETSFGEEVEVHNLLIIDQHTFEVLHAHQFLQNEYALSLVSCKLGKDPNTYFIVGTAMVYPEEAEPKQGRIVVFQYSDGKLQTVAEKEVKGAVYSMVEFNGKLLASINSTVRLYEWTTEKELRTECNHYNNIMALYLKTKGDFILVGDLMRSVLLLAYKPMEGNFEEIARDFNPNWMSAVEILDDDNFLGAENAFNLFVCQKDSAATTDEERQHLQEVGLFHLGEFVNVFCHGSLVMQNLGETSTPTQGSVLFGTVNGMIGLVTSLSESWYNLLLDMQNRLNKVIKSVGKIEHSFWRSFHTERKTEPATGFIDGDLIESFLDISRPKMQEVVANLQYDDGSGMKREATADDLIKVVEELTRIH

DC50 [nM] | Dmax [1] [%] | remaining activity at up to 25 µM (HEK-293T, 293T cells) [%] | SMILES | Dmax (HEK-293T, read-out: % degradation of WIZ (100-Amax), 100 minus Amax, 293T cells) [%] | remaining activity (HEK-293T, read-out: WIZ Amax, DMSO-normalized, curve-fitted percentage of WIZ-HiBit remaining at 25 uM, 293T cells) [%] | % degradation of WIZ (100-Amax) (100 minus Amax, 293T cells) [%] | WIZ Amax (293T cells) [%]
> 25000 | 11.2 | 88.8 | O=C1CCC(N2Cc3cc(OC[C@@H]4CCCCN4C(=O)c4cccc(S(=O)(=O)O)c4)ccc3C2=O)C(=O)N1 (some centres unmarked) [Compound I-72a] |  |  |  | 
0.37 | 91.5 | 8.45 | O=C1CCC(N2Cc3cc(OC[C@H]4CCCCN4Cc4ccc(N5CCCCC5)cc4)ccc3C2=O)C(=O)N1 (stereo partly drawn) [Compound I-161, 3-(1-oxo-5-(((R)-1-(4-(piperidin-1-yl)benzyl)piperidin-2-yl)methoxy)isoindolin-2-yl)piperidine-2,6-dione] |  |  |  | 
500 | 78.3 | 21.7 | O=C1CCC(N2Cc3cc(OCC4CC(F)(F)CCN4)ccc3C2=O)C(=O)N1 (centres unmarked) [Compound I-251, 3-(5-((4,4-difluoropiperidin-2-yl)methoxy)-1-oxoisoindolin-2-yl)piperidine-2,6-dione] |  |  |  | 
> 25000 | 46.6 | 53.4 | CN(C)c1ncc(CN2CCCC[C@H]2COc2ccc3c(c2)CN(C2CCC(=O)NC2=O)C3=O)cn1 (some centres unmarked) [Compound I-50m] |  |  |  | 
 | 37.4 | 62.6 | O=C1CCC(N2Cc3cc(OC[C@H]4CCCCN4Cc4cccc(F)c4O)ccc3C2=O)C(=O)N1 (some centres unmarked) [Compound I-143] |  |  |  | 
0.92 | 67.5 | 32.5 | O=C1CCC(N2Cc3cc(OC[C@H]4CCCCN4Cc4ccc(C5CCN(CC6COC6)CC5)cc4)ccc3C2=O)C(=O)N1 (stereo partly drawn) [Compound I-203, 3-(5-(((R)-1-(4-(1-(oxetan-3-ylmethyl)piperidin-4-yl)benzyl)piperidin-2-yl)methoxy)-1-oxoisoindolin-2-yl)piperidine-2,6-dione] |  |  |  | 
20 | 94.5 | 5.51 | O=C1CCC(N2Cc3cc(OC[C@H]4CCCCN4Cc4ccc(O)cc4)ccc3C2=O)C(=O)N1 (some centres unmarked) [Compound I-148] |  |  |  | 
240 | 82.7 | 17.3 | O=C1CCC(N2Cc3cc(OC[C@H]4CCCCN4Cc4ccc(N5CCN(CC6CC6)CC5)cc4)ccc3C2=O)C(=O)N1 (stereo partly drawn) [Compound I-102, 3-(5-(((R)-1-(4-(4-(cyclopropylmethyl)piperazin-1-yl)benzyl)piperidin-2-yl)methoxy)-1-oxoisoindolin-2-yl)piperidine-2,6-dione] |  |  |  | 
2640 | 70.1 | 29.9 | Cc1nccn1-c1ccc(CN2CCCC[C@H]2COc2ccc3c(c2)CN(C2CCC(=O)NC2=O)C3=O)cc1 (some centres unmarked) [Compound I-50u] |  |  |  | 
1900 | 71.6 | 28.4 | COc1ccc(C(=O)N2CCCC[C@H]2COc2ccc3c(c2)CN(C2CCC(=O)NC2=O)C3=O)cc1OCc1ccccc1 (some centres unmarked) [Compound I-72d] |  |  |  | 

Continued, compound first:

SMILES | DC50 [nM] | Dmax [1] [%] | remaining activity at up to 25 µM (HEK-293T, 293T cells) [%] | Dmax (HEK-293T, read-out: % degradation of WIZ (100-Amax), 100 minus Amax, 293T cells) [%] | remaining activity (HEK-293T, read-out: WIZ Amax, DMSO-normalized, curve-fitted percentage of WIZ-HiBit remaining at 25 uM, 293T cells) [%] | % degradation of WIZ (100-Amax) (100 minus Amax, 293T cells) [%] | WIZ Amax (293T cells) [%]
CCc1cc(CN2CCCC[C@@H]2COc2ccc3c(c2)CN(C2CCC(=O)NC2=O)C3=O)ccc1C1CCN(CC)CC1 (stereo partly drawn) [Compound I-157, 3-(5-(((R)-1-(3-ethyl-4-(1-ethylpiperidin-4-yl)benzyl)piperidin-2-yl)methoxy)-1-oxoisoindolin-2-yl)piperidine-2,6-dione] | 160 |  |  | 63 | 37 |  | 
C[C@H]1CC[C@H](CC(=O)N2CCCC[C@H]2COc2ccc3c(c2)CN(C2CCC(=O)NC2=O)C3=O)CC1 (some centres unmarked) [Compound I-72do] | > 25000 | 23.3 | 76.7 |  |  |  | 
O=C1CCC(N2Cc3cc(OC[C@@H]4CCCCN4C(=O)c4ccc5nccnc5c4)ccc3C2=O)C(=O)N1 (some centres unmarked) [Compound I-72hq] | > 25000 | 13.3 | 86.7 |  |  |  | 
O=C1CCC(N2Cc3cc(OC[C@@H]4CCCCN4Cc4ccnc5[nH]ccc45)ccc3C2=O)C(=O)N1 (some centres unmarked) [Compound I-50cx] | 143 | 92.6 | 7.4 |  |  |  | 
Cc1ncc(CN2CCCC[C@@H]2COc2ccc3c(c2)CN(C2CCC(=O)NC2=O)C3=O)[nH]1 (some centres unmarked) [Compound I-50bp] | 7000 | 65.9 | 34.1 |  |  |  | 
O=C1CCC(N2Cc3cc(OC[C@@H]4CCCCN4C(=O)[C@H]4CCOC4)ccc3C2=O)C(=O)N1 (some centres unmarked) [Compound I-72fn] | > 25000 | 2.6 | 97.4 |  |  |  | 
O=C1CCC(N2Cc3cc(OC[C@@H]4CCCCN4C(=O)c4csc(-c5ccccc5)n4)ccc3C2=O)C(=O)N1 (some centres unmarked) [Compound I-72du] | > 25000 | 23.6 | 76.4 |  |  |  | 
CCN1C2CCC(C2)C1COc1ccc2c(c1)CN(C1CCC(=O)NC1=O)C2=O (single isomer, unassigned) [I-255 (Isomer 4), 3-(5-((endo-2-ethyl-2-azabicyclo[2.2.1]heptan-3-yl)methoxy)-1-oxoisoindolin-2-yl)piperidine-2,6-dione] | 34 |  |  |  |  | 73.0 | 27.0
CCN1CCC(F)(F)CC1COc1ccc2c(c1)CN(C1CCC(=O)NC1=O)C2=O (single isomer, unassigned) [I-252 (Isomer 1), 3-(5-((1-ethyl-4,4-difluoropiperidin-2-yl)methoxy)-1-oxoisoindolin-2-yl)piperidine-2,6-dione] | 50 |  |  |  |  | 58.1 | 41.9
Cc1nc[nH]c1CN1CCCC[C@@H]1COc1ccc2c(c1)CN(C1CCC(=O)NC1=O)C2=O (some centres unmarked) [Compound I-50cs] | 4410 | 71.1 | 28.9 |  |  |  | 
O=C1CCC(N2Cc3cc(OC[C@@H]4CCCCN4C(=O)[C@@H]4CCC(=O)N4Cc4ccccc4)ccc3C2=O)C(=O)N1 (some centres unmarked) [Compound I-72ed] | > 25000 | 4.6 | 95.4 |  |  |  | 
O=C1CCC(N2Cc3cc(OC[C@H]4CCCCN4CC4CCN(C(=O)OCc5ccccc5)CC4)ccc3C2=O)C(=O)N1 (some centres unmarked) [Compound I-50cl] | 644 | 77.7 | 22.3 |  |  |  | 
Cn1cncc1CN1CCCC[C@H]1COc1ccc2c(c1)CN(C1CCC(=O)NC1=O)C2=O (some centres unmarked) [Compound I-50ag] | 15200 | 62.8 | 37.2 |  |  |  | 
CC(C)(C)Cc1cc(C(=O)N2CCCC[C@H]2COc2ccc3c(c2)CN(C2CCC(=O)NC2=O)C3=O)no1 (some centres unmarked) [Compound I-72bz] | > 25000 | 46.7 | 53.3 |  |  |  | 
COc1ccc(C(C)(C)C(=O)N2CCCC[C@H]2COc2ccc3c(c2)CN(C2CCC(=O)NC2=O)C3=O)cc1 (some centres unmarked) [Compound I-72fz] | > 25000 | 9.1 | 90.9 |  |  |  | 
CCc1nc(C)c(CN2CCCC[C@H]2COc2ccc3c(c2)CN(C2CCC(=O)NC2=O)C3=O)[nH]1 (some centres unmarked) [Compound I-50cy] | 922 | 89 | 11 |  |  |  | 
O=C1CCC(N2Cc3cc(OC[C@@H]4CCCCN4C(=O)CCCn4cnnc4)ccc3C2=O)C(=O)N1 (some centres unmarked) [Compound I-72fv] | > 25000 | 1.1 | 98.9 |  |  |  | 
COc1cc2[nH]nc(CN3CCCC[C@@H]3COc3ccc4c(c3)CN(C3CCC(=O)NC3=O)C4=O)c2cc1OCc1ccccc1 (some centres unmarked) [Compound I-50ev] | 51 | 98 | 2 |  |  |  | 
O=C1CCC(N2Cc3cc(OC[C@H]4CCCCN4Cc4cnn(Cc5ccccc5)c4)ccc3C2=O)C(=O)N1 (some centres unmarked) [Compound I-50bv] | 1 | 99.9 | 0.1 |  |  |  | 
